From US20090186942A1, “NOVEL NUTRACEUTICAL AND PHARMACEUTICAL COMPOSITIONS AND USE THEREOF FOR THE TREATMENT, CO-TREATMENT OR PREVENTION OF INFLAMMATORY DISORDERS” (priority 2006, published 2009)
Values belong to the molecule of their own block, whether it stands above or below them.

Legend:
Format in all cases: cell-based
[1] = system: murine macrophage indicator cell line, RAW267.4; assay: Inhibition of nitric oxide production in LPS-stimulated macrophages (Griess reaction); conditions: single substances, RAW267.4 cells, LPS 1 μg/ml, 24 hours
Procedure: (§1) Pure substances were then further assayed in vitro in cellular cell systems. The inhibition of the synthesis of nitric oxide and/or pro-inflammatory prostaglandins (PG) by the compounds was measured. PGE2 plays a critical role in the inflammation process, while nitric oxide (NO) is a hallmark of inflammation in various chronic inflammatory diseases including various forms of arthritis, gastro-intestinal diseases and metabolic syndrome X. The effects of compounds on the inflammatory response were tested in cellular assays using a murine macrophage indicator cell line, RAW267.4. The cells were purchased from ATCC (Manassas, Va., USA) and cultured in DMEM containing streptomycin/penicillin, non-essential amino acids and 10% fetal calf serum (FCS). In order to test a large range of concentration of compounds, cells (˜50,000/well) were seeded into flat-bottomed microtiter plates and cultured for one day. Cells were then starved in complete medium containing 0.25% FCS (D-025). After overnight culture, medium was removed and replaced by 100 μL of D-025 containing the test compounds at twice the final concentration. Subsequently, 100 μL of D-025 containing 2 μg/ml LPS was added (i.e. final LPS concentration of 1 μg/ml) and the cells cultured for 24 hours.
(§2) Substances were tested in a concentration range from 0.2 to 50 μM in two-fold dilution steps. Extracts were tested from 0.2 to 50 mg/L. All treatments were done in duplicates and several experimental series were done for each treatment. Concentrations of nitrite which was rapidly formed from nitric oxide released by cells were determined by the Griess reaction using sodium nitrite as standard. Briefly, 50 μl of supernatant was mixed with Griess reagent 1 (25 μL) and Griess reagent 2 (25 μL), centrifuged and the optical density at 540 nm determined. PGE2 secreted into the cell culture medium was determined by EIA obtained from Cayman Chemicals (Ann Harbor, […]., USA) and used according to the manufacturer's instructions. All determinations were done in duplicates and at various dilutions of the culture supernatant. IC50 values were calculated using a […] least-square fitting equation [y=A+((B−A)/(1+((C−x)̂D))] for best-fit curves (Excel fit software program).

[2] = system: murine macrophage indicator cell line, RAW267.4; assay: Inhibition of PGE2 production in LPS-stimulated macrophages (EIA); conditions: single substances, RAW267.4 cells, LPS 1 μg/ml, 24 hours
Procedure: as §1, §2

[3] = system: TNF-α; assay: Expression of inflammatory genes by quantitative RT-PCR: TNF-α; conditions: RAW 264.7 cells, 4 hours
Procedure: (§3) The effect of the compounds has been evaluated on the level of the expression of genes that are involved in the inflammatory response. These comprise e.g. the following genes TNF-α, IL-6, MIP1β and NF-κB1 and NF-κBp49, the latter two of which are transcription factors involved in the regulation of inflammatory gene expression. After 4 hours, RNA was extracted and the expression of genes determined by quantitative RT-PCR as described (Richard, N., Porath, D., Radspieler, A. and Schwager, J. Effects of resveratrol, piceatannol, tri-acetoxystilbene, and genistein on the inflammatory response of human peripheral blood leukocytes. Mol Nutr Food Res 2005. 49: 431-442).

[4] = system: IL-6; assay: Expression of inflammatory genes by quantitative RT-PCR: IL-6; conditions: RAW 264.7 cells, 4 hours
Procedure: as §3

[5] = system: macrophage inflammatory protein 1 [MIP-1]; assay: Expression of inflammatory genes by quantitative RT-PCR: MIP-1; conditions: RAW 264.7 cells, 4 hours
Procedure: as §3

[6] = system: NF-κB1; assay: Expression of inflammatory genes by quantitative RT-PCR: NF-κB1; conditions: RAW 264.7 cells, 4 hours
Procedure: as §3

[7] = system: NF-κBp49; assay: Expression of inflammatory genes by quantitative RT-PCR: NF-κBp49; conditions: RAW 264.7 cells, 4 hours
Procedure: as §3

Structure (SMILES): CCC/C=C\C/C=C\CCCCCCCc1cccc(O)c1C(=O)O [(15:2)-Anacardic acid]
IC50 [1]: 82.4 ± 6.7 µM
IC50 [2]: 43.1 ± 5.5 µM

Structure (SMILES): C=CC/C=C\C/C=C\CCCCCCCc1cccc(O)c1C(=O)O [(15:3)-Anacardic acid]
IC50 [1]: 7.4 ± 0.4 µM
IC50 [2]: 26.6 ± 21.1 µM
% expression TNF-α mRNA relative to cells stimulated with LPS only ([3]; 6.25 μM/L): 76%
% expression TNF-α mRNA relative to cells stimulated with LPS only ([3]; 12.5 μM/L): 54%
Effect on TNF-α expression (in words) [3]: significantly reduced
% expression IL-6 mRNA relative to cells stimulated with LPS only ([4]; 6.25 μM/L): 65%
% expression IL-6 mRNA relative to cells stimulated with LPS only ([4]; 12.5 μM/L): 71%
% expression MIP-1-α mRNA relative to cells stimulated with LPS only ([5]; 6.25 μM/L): 58%
% expression MIP-1-α mRNA relative to cells stimulated with LPS only ([5]; 12.5 μM/L): 41%
Effect on MIP-1β expression (in words) [5]: significantly reduced
% expression NF-κB1 mRNA relative to cells stimulated with LPS only ([6]; 6.25 μM/L): 86%
% expression NF-κB1 mRNA relative to cells stimulated with LPS only ([6]; 12.5 μM/L): 78%
% expression NF-κBp49 mRNA relative to cells stimulated with LPS only ([7]; 6.25 μM/L): 74%
% expression NF-κBp49 mRNA relative to cells stimulated with LPS only ([7]; 12.5 μM/L): 57%

Structure (SMILES): C=CC/C=C\C/C=C\CCCCCCCc1cc(O)cc(O)c1 [Cardoltriene]
IC50 [1]: 4.9 ± 0.8 µM
IC50 [2]: 0.9 ± 0.2 µM

Structure (SMILES): O=C(O[C@@H]1Cc2c(O)cc(O)cc2O[C@@H]1c1cc(O)c(O)c(O)c1)c1cc(O)c(O)c(O)c1 [EGCG, reference compound]
IC50 [1]: 33 ± 2 µM
IC50 [2]: 35 µM

Next, values leading:

IC50 [1]: > 100 µM
IC50 [2]: 57.8 µM
Structure (SMILES): CCCCCC/C=C\CCCCCCCc1cccc(O)c1C(=O)O [Ginkoic acid, Ginkgoic acid]

IC50 ([1]; Mus musculus): 31 ± 2 µM
IC50 ([2]; Mus musculus): 24 ± 2 µM
Structure (SMILES): Oc1ccc(C=Cc2cc(O)cc(O)c2)cc1 [Resveratrol, reference compound]
